Where “and” joins values, the source holds several entries; their conditions need not be identical. Identical values can stand only once. Toxic doses and inconclusive results are not listed.
Test system: CD2F1 mice, L1210 leukemia ip, survival T/C
Experiment: NCI In Vivo Anticancer Drug Screen. Data for tumor model L1210 Leukemia (intraperitoneal) in CD2F1 (CDF1) mice
Settings: higher = longer survival
Procedure, shortened: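 Tumor-bearing mice (transplanted tumor) were split into treated and vehicle control groups, and the measured endpoint of each treated group was divided by that of its vehicle controls.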

[1] = endpoint: mean survival time, dose: 100.0 mg/kg/injection, schedule: Q01DX009 (ip), vehicle: saline with Tween-80
[2] = endpoint: mean survival time, dose: 200.0 mg/kg/injection, schedule: Q01DX009 (ip), vehicle: saline with Tween-80
[3] = endpoint: mean survival time, dose: 400.0 mg/kg/injection, schedule: Q01DX009 (ip), vehicle: saline with Tween-80
[4] = endpoint: mean survival time, dose: 100.0 mg/kg/injection, schedule: Q04DX002 (ip), vehicle: saline with Tween-80
[5] = endpoint: mean survival time, dose: 200.0 mg/kg/injection, schedule: Q04DX002 (ip), vehicle: saline with Tween-80
[6] = endpoint: mean survival time, dose: 50.0 mg/kg/injection, schedule: Q01DX009 (ip), vehicle: saline with Tween-80
[7] = endpoint: mean survival time, dose: 100.0 mg/kg/injection, schedule: Q01DX001 (ip), vehicle: saline with Tween-80
[8] = endpoint: mean survival time, dose: 200.0 mg/kg/injection, schedule: Q01DX001 (ip), vehicle: saline with Tween-80
[9] = endpoint: mean survival time, dose: 400.0 mg/kg/injection, schedule: Q01DX001 (ip), vehicle: saline with Tween-80
[10] = endpoint: mean survival time, dose: 100.0 mg/kg/injection, schedule: Q04DX003 (ip), vehicle: saline
[11] = endpoint: mean survival time, dose: 25.0 mg/kg/injection, schedule: Q04DX002 (ip), vehicle: saline with Tween-80
[12] = endpoint: mean survival time, dose: 100.0 mg/kg/injection, schedule: Q04DX003 (ip), vehicle: saline with Tween-80
[13] = endpoint: mean survival time, dose: 200.0 mg/kg/injection, schedule: Q04DX003 (ip), vehicle: saline with Tween-80
[14] = endpoint: mean survival time, dose: 400.0 mg/kg/injection, schedule: Q04DX003 (ip), vehicle: saline with Tween-80

SMILES: O=C(OC1CCC(c2ccccc2)C1)c1cc([N+](=O)[O-])cc([N+](=O)[O-])c1 (stereo not drawn)
- T/C (endpoint: mean survival time, dose: 75.0 mg/kg/injection, schedule: Q01DX001 (ip), vehicle: other): 92 % of control
- T/C (endpoint: mean survival time, dose: 150.0 mg/kg/injection, schedule: Q01DX001 (ip), vehicle: other): 92 % of control
- T/C (endpoint: mean survival time, dose: 300.0 mg/kg/injection, schedule: Q01DX001 (ip), vehicle: other): 92 % of control

SMILES: CC(C)CCCC(C)C1CCC2C3CCC4CCCCC4(C)C3CCC12C (stereo not drawn)
- T/C [1]: 95 % of control
- T/C [2]: 94 % of control
- T/C [3]: 105 % of control

SMILES: O=S(CCO)c1c(Cl)c(Cl)c(Cl)c(Cl)c1Cl (stereo not drawn)
- T/C [4]: 94 % of control
- T/C [5]: 94 % of control

SMILES: CC1(C)C(C#N)C(=O)N(Cc2ccccc2)C(=O)C1C#N (stereo not drawn)
- T/C [6]: 98 % of control
- T/C [1]: 107 % of control
- T/C [2]: 98 % of control

SMILES: CCOC(=O)CCC(C)(C#N)c1ccccc1 (stereo not drawn)
- T/C (endpoint: mean survival time, dose: 25.0 mg/kg/injection, schedule: Q01DX009 (ip), vehicle: saline with Tween-80): 96 % of control
- T/C [6]: 93 % of control
- T/C [1]: 98 % of control

SMILES: CCCCCCCCCCCCCCCCCCCCCC(=O)CCCCCCCCCCCCCCCCCCCCC
- T/C [7]: 86 % of control
- T/C [8]: 93 % of control
- T/C [9]: 101 % of control

SMILES: CC1CC(C)(C)CC(=O)O1 (stereo not drawn)
- T/C (endpoint: mean survival time, dose: 75.0 mg/kg/injection, schedule: Q01DX001 (ip), vehicle: saline): 101 % of control

SMILES: CN1C(=O)[N+](C)(C)N=C1[O-]
- T/C [10]: 94 % of control
- T/C (endpoint: mean survival time, dose: 200.0 mg/kg/injection, schedule: Q04DX003 (ip), vehicle: saline): 97 % of control
- T/C (endpoint: mean survival time, dose: 400.0 mg/kg/injection, schedule: Q04DX003 (ip), vehicle: saline): 95 % of control

SMILES: Cc1ccc2nc(-c3ccc(NC(=O)c4ccc(C(=O)Nc5ccc(-c6nc7ccc(C)cc7s6)cc5)cc4)cc3)sc2c1
- T/C (endpoint: mean survival time, dose: 100.0 mg/kg/injection, schedule: Q01DX001 (ip), vehicle: saline): 89 % of control
- T/C (endpoint: mean survival time, dose: 200.0 mg/kg/injection, schedule: Q01DX001 (ip), vehicle: saline): 89 % of control
- T/C (endpoint: mean survival time, dose: 400.0 mg/kg/injection, schedule: Q01DX001 (ip), vehicle: saline): 86 % of control

SMILES: O=C(O)C1C=CC(C(=O)O)c2ccccc21 (stereo not drawn)
- T/C (endpoint: mean survival time, dose: 100.0 mg/kg/injection, schedule: Q01DX001 (ip), vehicle: Klucel (hydroxypropylcellulose) (HPC)): 91 % of control
- T/C (endpoint: mean survival time, dose: 200.0 mg/kg/injection, schedule: Q01DX001 (ip), vehicle: Klucel (hydroxypropylcellulose) (HPC)): 90 % of control
- T/C (endpoint: mean survival time, dose: 400.0 mg/kg/injection, schedule: Q01DX001 (ip), vehicle: Klucel (hydroxypropylcellulose) (HPC)): 91 % of control

SMILES: O=C(/C=C/c1ccccc1)NC(=S)NCc1ccccc1Cl
- T/C [6]: 95 % of control and 96 % of control
- T/C [7]: 94 % of control
- T/C [4]: 95 % of control and 110 % of control
- T/C [8]: 92 % of control
- T/C [5]: 90 % of control and 95 % of control
- T/C [9]: 95 % of control
- T/C (endpoint: mean survival time, dose: 400.0 mg/kg/injection, schedule: Q04DX002 (ip), vehicle: saline with Tween-80): 98 % of control and 101 % of control

SMILES: O=c1cc(CCl)oc(Br)c1O
- T/C [11]: 98 % of control
- T/C (endpoint: mean survival time, dose: 50.0 mg/kg/injection, schedule: Q04DX002 (ip), vehicle: saline with Tween-80): 98 % of control
- T/C [4]: 91 % of control

SMILES: COc1ccc(O)c(CC(C)C)c1
- T/C (endpoint: mean survival time, dose: 100.0 mg/kg/injection, schedule: Q01DX009 (ip), vehicle: acetone): 100 % of control
- T/C (endpoint: mean survival time, dose: 200.0 mg/kg/injection, schedule: Q01DX009 (ip), vehicle: acetone): 104 % of control
- T/C (endpoint: mean survival time, dose: 400.0 mg/kg/injection, schedule: Q01DX009 (ip), vehicle: acetone): 96 % of control

SMILES: COC(=O)C(NC(=O)C(C)NC(=O)OCc1ccccc1)C(C)C (stereo not drawn)
- T/C [1]: 97 % of control
- T/C [2]: 93 % of control
- T/C [3]: 98 % of control

SMILES: COc1ccc(CCOS(=O)(=O)c2ccc(C)cc2)cc1
- T/C [7]: 103 % of control
- T/C [8]: 101 % of control
- T/C [9]: 101 % of control

SMILES: CC(=O)Nc1ccc(/C=N\NC(=O)CNC(=O)Nc2ccc(F)cc2)cc1
- T/C [6]: 96 % of control
- T/C [1]: 96 % of control

SMILES: N#CCSc1nc(N)nc2nc[nH]c12
- T/C [1]: 103 % of control
- T/C (endpoint: mean survival time, dose: 100.0 mg/kg/injection, schedule: Q04DX003 (ip), vehicle: saline sonified): 102 % of control
- T/C [2]: 116 % of control
- T/C (endpoint: mean survival time, dose: 200.0 mg/kg/injection, schedule: Q04DX003 (ip), vehicle: saline sonified): 105 % of control
- T/C (endpoint: mean survival time, dose: 400.0 mg/kg/injection, schedule: Q04DX003 (ip), vehicle: saline sonified): 107 % of control

SMILES: O=C(NCCNC(c1ccccc1)C(NCCNC(=O)c1ccccc1)c1ccccc1)c1ccccc1 (stereo not drawn)
- T/C [7]: 92 % of control
- T/C [8]: 96 % of control
- T/C [9]: 92 % of control

SMILES: CC(=O)Nc1ccc(SC(=O)N(C)C)cc1
- T/C [12]: 92 % of control

SMILES: Nc1nc(SSc2nc(N)nc3c2ncn3C2CC(O)C(CO)O2)c2ncn(C3CC(O)C(CO)O3)c2n1 (stereo not drawn)
- T/C (endpoint: mean survival time, dose: 2.3 mg/kg/injection, schedule: Q01DX009 (ip), vehicle: saline): 152 % of control
- T/C (endpoint: mean survival time, dose: 4.7 mg/kg/injection, schedule: Q01DX009 (ip), vehicle: saline): 162 % of control
- T/C (endpoint: mean survival time, dose: 18.8 mg/kg/injection, schedule: Q01DX009 (ip), vehicle: saline): 119 % of control

SMILES: COc1ccc(-n2cnnn2)cc1
- T/C [12]: 101 % of control
- T/C [13]: 106 % of control
- T/C [14]: 112 % of control

SMILES: O=[N+]([O-])c1cc(Cl)c(Cl)cc1Cl
- T/C [1]: 92 % of control
- T/C [12]: 106 % of control
- T/C [2]: 104 % of control
- T/C [13]: 101 % of control
- T/C [14]: 118 % of control

SMILES: c1ccc(-c2c[s+]cc(-c3ccccc3)c2)cc1
- T/C (endpoint: mean survival time, dose: 50.0 mg/kg/injection, schedule: Q01DX001 (ip), vehicle: saline with Tween-80): 109 % of control
- T/C [7]: 104 % of control
- T/C [8]: 110 % of control

SMILES: ClC1CC2C=CC1C2 (stereo not drawn)
- T/C [7]: 103 % of control
- T/C [8]: 100 % of control
- T/C [9]: 102 % of control

SMILES: c1ccc(C[As+](c2ccccc2)(c2ccccc2)c2ccccc2)cc1
- T/C [11]: 96 % of control

SMILES: O/N=C(/c1ccccc1)c1ccc(O)cc1
- T/C (endpoint: median survival time, dose: 25.0 mg/kg/injection, schedule: Q01DX001 (ip), vehicle: saline with Tween-80): 104 % of control
- T/C (endpoint: median survival time, dose: 50.0 mg/kg/injection, schedule: Q01DX001 (ip), vehicle: saline with Tween-80): 101 % of control
- T/C (endpoint: median survival time, dose: 100.0 mg/kg/injection, schedule: Q01DX001 (ip), vehicle: saline with Tween-80): 98 % of control
- T/C (endpoint: median survival time, dose: 200.0 mg/kg/injection, schedule: Q01DX001 (ip), vehicle: saline with Tween-80): 104 % of control
- T/C (endpoint: median survival time, dose: 400.0 mg/kg/injection, schedule: Q01DX001 (ip), vehicle: saline with Tween-80): 101 % of control

SMILES: CCOc1ccc2ccccc2c1C
- T/C (endpoint: mean survival time, dose: 100.0 mg/kg/injection, schedule: Q04DX002 (ip), vehicle: other): 120 % of control
- T/C (endpoint: mean survival time, dose: 200.0 mg/kg/injection, schedule: Q04DX002 (ip), vehicle: other): 112 % of control
- T/C (endpoint: mean survival time, dose: 400.0 mg/kg/injection, schedule: Q04DX002 (ip), vehicle: other): 104 % of control

SMILES: CN(C)C(=O)On1cccc1C#N
- T/C (endpoint: mean survival time, dose: 0.78 mg/kg/injection, schedule: Q01DX001 (ip), vehicle: saline): 95 % of control
- T/C (endpoint: mean survival time, dose: 1.56 mg/kg/injection, schedule: Q01DX001 (ip), vehicle: saline): 98 % of control
- T/C (endpoint: mean survival time, dose: 3.13 mg/kg/injection, schedule: Q01DX001 (ip), vehicle: saline): 98 % of control

SMILES: O=C1C(=O)c2ccccc2C(O)=C1CC1=C(O)c2ccccc2C(=O)C1=O
- T/C [12]: 103 % of control
- T/C [13]: 101 % of control
- T/C [14]: 106 % of control

SMILES: Nc1ccccc1Sc1ccncc1[N+](=O)[O-]
- T/C [1]: 96 % of control
- T/C [12]: 90 % of control
- T/C [2]: 100 % of control
- T/C [13]: 95 % of control
- T/C [3]: 101 % of control
- T/C [14]: 97 % of control

SMILES: CCCC(=O)Nc1ccc(S(=O)(=O)Nc2ccc(S(=O)(=O)N3CCOCC3)cc2)cc1
- T/C [7]: 103 % of control
- T/C [8]: 92 % of control
- T/C [9]: 94 % of control

SMILES: O=C1c2ccccc2C(=O)N1c1c2ccccc2cc2ccccc12
- T/C [1]: 95 % of control
- T/C [2]: 101 % of control
- T/C [3]: 90 % of control

SMILES: CCn1c(C)[n+](CC)c2ccc(C(C)=O)cc21
- T/C (endpoint: mean survival time, dose: 25.0 mg/kg/injection, schedule: Q04DX003 (ip), vehicle: saline): 104 % of control
- T/C (endpoint: mean survival time, dose: 50.0 mg/kg/injection, schedule: Q04DX003 (ip), vehicle: saline): 108 % of control
- T/C [10]: 106 % of control

SMILES: COc1cc2ccc(/C=N/NC(N)=S)cc2cc1OC
- T/C (endpoint: mean survival time, dose: 25.0 mg/kg/injection, schedule: Q01DX009 (ip), vehicle: water): 94 % of control
- T/C (endpoint: mean survival time, dose: 50.0 mg/kg/injection, schedule: Q01DX009 (ip), vehicle: water): 98 % of control
- T/C (endpoint: mean survival time, dose: 100.0 mg/kg/injection, schedule: Q01DX009 (ip), vehicle: water): 102 % of control
- T/C (endpoint: mean survival time, dose: 200.0 mg/kg/injection, schedule: Q01DX009 (ip), vehicle: water): 93 % of control
